Laboratory results taken from PubChem BioAssay (NCI).
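Step 1: Grow cells in 96-well plates. Step 2: Expose to compound for 48 hours at 5 concentrations. Step 3: Interpolate endpoints linearly; if unreached, use highest concentration. The concentration for full growth arrest is given as TGI.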

Key:
Test in all cases: inhibition of tumour cell growth, NCI panel, 48 h
786-0 renal = system: 786-0 renal
A498 renal = system: A498 renal
A549 NSCLC = system: A549 NSCLC
ACHN renal = system: ACHN renal
BT-549 breast = system: BT-549 breast
CAKI-1 renal = system: CAKI-1 renal
CCRF-CEM leukemia = system: CCRF-CEM leukemia
COLO 205 colon = system: COLO 205 colon
DU-145 prostate = system: DU-145 prostate
EKVX NSCLC = system: EKVX NSCLC
HCT-116 colon = system: HCT-116 colon
HCT-15 colon = system: HCT-15 colon
HL-60(TB) leukemia = system: HL-60(TB) leukemia
HOP-62 NSCLC = system: HOP-62 NSCLC
HOP-92 NSCLC = system: HOP-92 NSCLC
HS 578T breast = system: HS 578T breast
HT29 colon = system: HT29 colon
IGROV1 ovarian = system: IGROV1 ovarian
K-562 leukemia = system: K-562 leukemia
KM12 colon = system: KM12 colon
LOX IMVI melanoma = system: LOX IMVI melanoma
M14 melanoma = system: M14 melanoma
MALME-3M melanoma = system: MALME-3M melanoma
MCF7 breast = system: MCF7 breast
MDA-MB-231 breast = system: MDA-MB-231 breast
MDA-MB-435 = system: MDA-MB-435
MDA-N = system: MDA-N
MOLT-4 leukemia = system: MOLT-4 leukemia
NCI-H226 lung = system: NCI-H226 lung
NCI-H23 lung = system: NCI-H23 lung
NCI-H460 lung = system: NCI-H460 lung
NCI-H522 lung = system: NCI-H522 lung
NCI/ADR-RES ovarian = system: NCI/ADR-RES ovarian
OVCAR-3 ovarian = system: OVCAR-3 ovarian
OVCAR-4 ovarian = system: OVCAR-4 ovarian
OVCAR-5 ovarian = system: OVCAR-5 ovarian
OVCAR-8 ovarian = system: OVCAR-8 ovarian
PC-3 prostate = system: PC-3 prostate
RPMI-8226 leukemia = system: RPMI-8226 leukemia
RXF 393 renal = system: RXF 393 renal
SF-268 CNS = system: SF-268 CNS
SF-295 CNS = system: SF-295 CNS
SF-539 CNS = system: SF-539 CNS
SK-MEL-2 melanoma = system: SK-MEL-2 melanoma
SK-MEL-28 melanoma = system: SK-MEL-28 melanoma
SK-MEL-5 melanoma = system: SK-MEL-5 melanoma
SK-OV-3 ovarian = system: SK-OV-3 ovarian
SN12C renal = system: SN12C renal
SNB-19 CNS = system: SNB-19 CNS
SNB-75 CNS = system: SNB-75 CNS
SR leukemia = system: SR leukemia
SW-620 colon = system: SW-620 colon
T-47D breast = system: T-47D breast
TK-10 renal = system: TK-10 renal
U251 CNS = system: U251 CNS
UACC-257 melanoma = system: UACC-257 melanoma
UACC-62 melanoma = system: UACC-62 melanoma
UO-31 renal = system: UO-31 renal
HCC-2998 colon = system: HCC-2998 colon

Measured: TGI

Cc1ccc(S(=O)(=O)N2CCC(C(=O)O)(c3ccccc3)CC2)cc1
not listed: HCC-2998 colon
> 100 µM: all other assays above

COc1cc2c(cc1OC)C(=O)N(c1ccc(OCCN3CCCC3)cc1)C2=O
not listed: SNB-75 CNS | UO-31 renal
> 100 µM: all other assays above
